Source: EPA's ToxRefDB 2

Experiments:
rat [1] = settings: Prenatal developmental toxicity study, Oral, Gavage/Intubation, dose end: 18 GD
rat [2] = settings: Subchronic oral toxicity in rodents, Gavage/Intubation, dose end: 64 day, group: systemic, systemic / in life observation / body weight / body weight + systemic / in life observation / clinical signs / motor activity + systemic / …
rat [3] = settings: Sub-acute repeat dose toxicity, sprague dawley, Oral, Gavage/Intubation, dose end: 22 day, group: systemic
dog = settings: Sub-acute repeat dose toxicity; beagle; Inhalation; Whole-Body; dose end: 14 day; group: systemic; systemic / in life observation / food consumption / food consumption + systemic / pathology microscopic / nose / [other] + systemic / …
rat [4] = settings: Sub-acute repeat dose toxicity; Inhalation; Whole-Body; dose end: 14 day; group: systemic; systemic / hematology / blood clotting / blood clotting - activated partial thromboplastin time + systemic / in life observation / body …
primate [5] = settings: Sub-acute repeat dose toxicity; Oral; Gavage/Intubation; dose end: 5 day; group: systemic; systemic / in life observation / clinical signs / emesis + systemic / in life observation / food consumption / food consumption
rat [6] = settings: Fertility (Segment I), sprague dawley, Oral, Gavage/Intubation, dose end: 1 generation, group: parental
rat [7] = settings: Subchronic oral toxicity in rodents, sprague dawley, Gavage/Intubation, dose end: 42 day, group: systemic
rat [8] = settings: Sub-acute repeat dose toxicity, sprague dawley, Oral, Gavage/Intubation, dose end: 12 day, group: systemic
rat [9] = settings: Prenatal developmental toxicity study, sprague dawley, Oral, Gavage/Intubation, dose end: 18 GD
rabbit [10] = settings: Sub-acute repeat dose toxicity, Oral, Gavage/Intubation, dose end: 5 day, group: systemic
primate [11] = settings: Subchronic oral toxicity in nonrodent, Gavage/Intubation, dose end: 48 day, group: systemic
primate [12] = settings: Subchronic oral toxicity in nonrodent, Gavage/Intubation, dose end: 42 day, group: systemic, systemic / in life observation / body weight / body weight + systemic / in life observation / clinical signs / emesis + systemic / in life …
primate [13] = settings: Sub-acute repeat dose toxicity, Oral, Gavage/Intubation, dose end: 9 day, group: systemic
rabbit [14] = settings: Sub-acute repeat dose toxicity, new zealand white, Oral, Gavage/Intubation, dose end: 13 day
rat [15] = settings: Sub-acute repeat dose toxicity, sprague dawley, Oral, Gavage/Intubation, dose end: 14 day, group: systemic
rat [16] = settings: Fertility (Segment I), sprague dawley, Oral, Gavage/Intubation, dose end: 1 generation, group: parental; remark: listed apart in the source
rabbit [17] = settings: Prenatal developmental toxicity study; new zealand white; Oral; Gavage/Intubation; dose end: 19 GD; group: maternal; systemic / in life observation / body weight / body weight gain + systemic / in life observation / clinical signs / reduced activity + …
[18] = group: developmental, developmental / developmental malformation / bone / fused + developmental / developmental malformation / bone / delayed ossification + …
[19] = group: maternal, systemic / in life observation / body weight / body weight + systemic / in life observation / body weight / body weight gain + systemic / in…
[20] = group: maternal, systemic / in life observation / body weight / body weight gain + systemic / in life observation / food consumption / food consumption
[21] = systemic / in life observation / body weight / body weight + systemic / in life observation / body weight / body weight gain + systemic / in…
[22] = systemic / in life observation / body weight / body weight gain
[23] = systemic / in life observation / body weight / body weight + systemic / in life observation / clinical signs / altered breathing rate + …
[24] = systemic / hematology / erythrocyte (rbc) count differential / erythrocyte (rbc) + systemic / hematology / hemoglobin (hgb) / hemoglobin (…
[25] = systemic / in life observation / body weight / body weight gain + systemic / in life observation / clinical signs / respiration (rales) + …
[26] = systemic / in life observation / body weight / body weight gain + systemic / in life observation / clinical signs / salivation + systemic / …
[27] = group: developmental, developmental / developmental malformation / eye / anophthalmia + developmental / developmental malformation / eye / microphthalmia + …
[28] = systemic / in life observation / clinical signs / abnormal feces
[29] = systemic / in life observation / clinical signs / emesis + systemic / pathology microscopic / peritoneum / atrophy
[30] = systemic / in life observation / clinical signs / emesis + systemic / pathology microscopic / peritoneum / atrophy + systemic / in life …
[31] = systemic / hematology / lymphocyte / lymphocyte
[32] = systemic / in life observation / clinical signs / emesis + systemic / in life observation / clinical signs / salivation + systemic / …
[33] = group: maternal, reproductive / offspring survival early / litter viability other / litter viability
[34] = group: systemic, systemic / in life observation / body weight / body weight + systemic / in life observation / clinical signs / inappetence
[35] = group: systemic, systemic / in life observation / body weight / body weight + systemic / in life observation / clinical signs / inappetence + systemic / in …
[36] = systemic / in life observation / food consumption / food consumption + systemic / pathology gross / intestine large / dilatation + systemic…
[37] = systemic / in life observation / clinical signs / abnormal respiratory sounds + systemic / in life observation / clinical signs / drooping …

In the case of `FC(F)(F)c1ccc2c(c1)[C@H]1CNC[C@@H]2C1`, the LEL (rat [1]; group: developmental, developmental / developmental malformation / bone / delayed ossification + developmental / developmental malformation / bone / fused + …) is reported as 3 mg/kg/day, the LOAEL (rat [1]; [18]) is reported as > 7 mg/kg/day and the NOAEL (rat [1]; [18]) is reported as ≥ 7 mg/kg/day. For the same compound, the LOAEL (rat [1]; [19]) was > 7 mg/kg/day, the NOAEL (rat [1]; [19]) was ≥ 7 mg/kg/day and the LEL (rat [1]; [20]) was 1 mg/kg/day. For the same compound, the NEL (rat [1]; [20]) was < 1 mg/kg/day, the LEL (rat [2]) was 3 mg/kg/day and the LOAEL (rat [2]) was > 3 mg/kg/day. For the same compound, the NEL (rat [2]) was 1 mg/kg/day, the NOAEL (rat [2]) was ≥ 3 mg/kg/day and the LOAEL (rat [3]; [21]) was > 7 mg/kg/day. The NOAEL (rat [3]; [21]) was ≥ 7 mg/kg/day, the LEL (rat [3]; [22]) was 1 mg/kg/day and the NEL (rat [3]; [22]) was < 1 mg/kg/day.

`CN(C[C@@H](CC[N+]12CCC(C3CCCCC3)(CC1)CC2)c1ccc(Cl)c(Cl)c1)C(=O)c1cc(C(F)(F)F)cc(C(F)(F)F)c1.CS(=O)(=O)[O-]` was tested, and the LEL (dog) was 2 mg/kg/day, the LOAEL (dog) was > 2 mg/kg/day and the NEL (dog) was < 2 mg/kg/day. The NOAEL (dog) was ≥ 2 mg/kg/day, the LEL (rat [4]) was 2 mg/kg/day and the LOAEL (rat [4]) was > 2 mg/kg/day. The NEL (rat [4]) was < 2 mg/kg/day and the NOAEL (rat [4]) was ≥ 2 mg/kg/day.

In the case of `C[C@@H](Oc1ccc(CNC(=O)c2cccnc2Oc2ccc3c(c2)OCO3)c(F)c1)C(=O)O`, the LEL (primate [5]) is reported as 30 mg/kg/day, the LOAEL (primate [5]) is reported as > 30 mg/kg/day and the NEL (primate [5]) is reported as < 30 mg/kg/day. For the same compound, the NOAEL (primate [5]) was ≥ 30 mg/kg/day, the LOAEL (rat [6]; [23]) was > 1000 mg/kg/day and the NEL (rat [6]; [23]) was 50 mg/kg/day. For the same compound, the NOAEL (rat [6]; [23]) was ≥ 1000 mg/kg/day, the LEL (rat [6]; systemic / in life observation / body weight / body weight + systemic / in life observation / clinical signs / drooping eyelids (ptosis) + …) was 400 mg/kg/day and the LOAEL (rat [7]; [24]) was > 2000 mg/kg/day. For the same compound, the NOAEL (rat [7]; [24]) was ≥ 2000 mg/kg/day, the NEL (rat [7]; systemic / hematology / neutrophils / neutrophils + systemic / in life observation / body weight / body weight + systemic / in life …) was 10 mg/kg/day and the LEL (rat [7]; systemic / pathology microscopic / mesentery / infiltration cellular) was 50 mg/kg/day. For the same compound, the LOAEL (rat [8]; [25]) was > 1000 mg/kg/day, the NOAEL (rat [8]; [25]) was ≥ 1000 mg/kg/day and the LEL (rat [8]; [26]) was 400 mg/kg/day. The NEL (rat [8]; [26]) was < 400 mg/kg/day, the LEL (rat [9]; [27]) was 400 mg/kg/day and the LOAEL (rat [9]; [27]) was > 1000 mg/kg/day. For the same compound, the NOAEL (rat [9]; [27]) was ≥ 1000 mg/kg/day, the LOAEL (rat [9]; [19]) was > 1000 mg/kg/day and the NEL (rat [9]; [19]) was 120 mg/kg/day. For the same compound, the NOAEL (rat [9]; [19]) was ≥ 1000 mg/kg/day, the LEL (rat [9]; group: maternal, systemic / in life observation / clinical signs / salivation + systemic / in life observation / food consumption / food consumption + …) was 400 mg/kg/day and the LOAEL (rabbit [10]; [21]) was > 750 mg/kg/day. For the same compound, the NOAEL (rabbit [10]; [21]) was ≥ 750 mg/kg/day, the LEL (rabbit [10]; [28]) was 120 mg/kg/day and the NEL (rabbit [10]; [28]) was < 120 mg/kg/day. For the same compound, the LEL (primate [11]; [29]) was 5 mg/kg/day, the NEL (primate [11]; [29]) was < 5 mg/kg/day and the LOAEL (primate [11]; [30]) was > 30 mg/kg/day. For the same compound, the NOAEL (primate [11]; [30]) was ≥ 30 mg/kg/day, the LEL (primate [12]) was 200 mg/kg/day and the LOAEL (primate [12]) was > 1000 mg/kg/day. For the same compound, the NEL (primate [12]) was 30 mg/kg/day, the NOAEL (primate [12]) was ≥ 1000 mg/kg/day and the LEL (primate [13]; [31]) was 100 mg/kg/day. The NEL (primate [13]; [31]) was < 100 mg/kg/day, the LOAEL (primate [13]; [32]) was > 1000 mg/kg/day and the NOAEL (primate [13]; [32]) was ≥ 1000 mg/kg/day. For the same compound, the LEL (rabbit [14]; [33]) was 600 mg/kg/day, the LOAEL (rabbit [14]; [33]) was > 600 mg/kg/day and the NEL (rabbit [14]; [33]) was 400 mg/kg/day. The NOAEL (rabbit [14]; [33]) was ≥ 600 mg/kg/day, the LEL (rabbit [14]; [34]) was 120 mg/kg/day and the NEL (rabbit [14]; [34]) was < 120 mg/kg/day. For the same compound, the LOAEL (rabbit [14]; [35]) was > 600 mg/kg/day, the NOAEL (rabbit [14]; [35]) was ≥ 600 mg/kg/day and the LEL (rat [15]; systemic / in life observation / food consumption / food consumption) was 120 mg/kg/day. For the same compound, the NEL (rat [15]; systemic / in life observation / food consumption / food consumption + systemic / pathology gross / intestine large / dilatation) was 30 mg/kg/day, the LOAEL (rat [15]; [36]) was > 750 mg/kg/day and the NOAEL (rat [15]; [36]) was ≥ 750 mg/kg/day. For the same compound, the LOAEL (rat [16]; [37]) was > 1000 mg/kg/day, the NEL (rat [16]; [37]) was 50 mg/kg/day and the NOAEL (rat [16]; [37]) was ≥ 1000 mg/kg/day. For the same compound, the LEL (rat [16]; systemic / in life observation / clinical signs / reduced activity + systemic / in life observation / clinical signs / salivation) was 400 mg/kg/day, the LEL (rabbit [17]) was 200 mg/kg/day and the LOAEL (rabbit [17]) was > 200 mg/kg/day. For the same compound, the NEL (rabbit [17]) was 60 mg/kg/day and the NOAEL (rabbit [17]) was ≥ 200 mg/kg/day.
